Laboratory results taken from patent US20180110743A1, “COMPOSITIONS AND METHODS FOR TREATING HEPATOCELLULAR CARCINOMA” (Northwestern University, priority 2015, published 2018).
Where two headings read alike, the source gives them in different places.

Experiments:
MCF-7/ADR = assay: Growth inhibition IC50 in multidrug-resistant vs parental cells (resistance factor), MCF-7/ADR; type: cell-based; details: ratio of IC50 in MCF-7/ADR to sensitive parental cells
Description: (§1) To address this point, the IC50 of MEAN in cell lines with or without activated p-glycoprotein were compared based on the rationale that if an agent is a substrate, its IC50 (growth inhibition in this case) will increase substantially in cells with activated p-glycoproteins (multi-drug resistant cells). Three separate experiments were carried out to determine the values of IC50, as mean±standard deviation (μM), and the inhibition rates of each concentration of compounds were tested in triplicate. The resistance factor (RF) was calculated as the ratio of the IC50 value of the multidrug-resistant cells to that of the corresponding sensitive parental cells.
(§2) IC50 of MEAN and reference compounds, doxorubicin and vincristine (VCR), were evaluated in three MDR expressing sublines: K562/ADR, MCF-7/ADR, and KB/VCR developed from resistance to Adriamycin (ADR) (FIG. 4C). For each of these cell lines, the RFs were measured to indicate the anti-MDR properties of the compounds. The resistance factor for doxorubicin in K562/ADR and MCF-7/ADR sublines and for vincristine in the KB/VCR subline were 74.1, 54.0, and 51.2.

K562/ADR = assay: Growth inhibition IC50 in multidrug-resistant vs parental cells (resistance factor), K562/ADR; type: cell-based; details: ratio of IC50 in K562/ADR to sensitive parental cells
Description: as §1, §2

[1] = Toxicity in treated xenograft mice: body weight, behavior, eating, stool; type: in vivo; details: 15 mg/kg each agent, 5 days on and 2 days off, six weeks
Description: FIG. 3. Toxicity induced by treatment of MEAN, sorafenib or a combination of both were measured against vehicle treated group through monitoring body weight changes throughout treatment course (A) and detecting the serum levels of liver enzymes at the experimental end point (B). The recovery of liver enzymes days after experimental end point (42nd day). n=10. a: each group vs Vehicle, b: sorafenib vs MEAN, c: M+S vs MEAN. *: p<0.05, **: p<0.01, Sorafenib vs M+S: has no difference.
(§3) HepG2-luc and Huh7-luc xenograft studies of efficacy and toxicity: Male nu/nu (nude) mice (18-20 g at experiment initiation) were maintained at the vivarium of Zhejiang University in a pathogen-free unit, under a 12-hour light/dark cycle. […] Images were collected and analyzed with Living Image software (Slidebook 4.1, Denver, Colo.). Tumor volumes were determined twice weekly by mechanically measuring the length (a) and width (b), with volume=ab^2/2. Tumor weights were measured at the experimental end point, and statistical analysis was performed using Student's t test.
To determine whether the combinational treatment by MEAN and sorefenib could increase toxicity compared to those caused by monotherapy, the toxicity induced by the treatment with either agent alone and in combination was evaluated in treated animals. […]

TXNIP [2] = assay: Western blot of treated xenograft tumor tissue, TXNIP; type: in vivo, mice; details: Huh7 and HepG2 tumors, end of 42 day treatment
Description: (§4) FIG. 6. […] The intensity of vehicle is set at 1 and ratios of treatment/vehicle are plotted in each quantitative graph.
(§5) Cells or tumor chunks were lysed with RIPA lysis buffer (Beyotime Biotechnology, Jiangsu, China) containing 1% Halt™ Protease and Phosphatase Inhibitor Cocktail (100X) (Thermo Fisher Scientific). 20 ug of total protein per lanewere separated by 10% SDS-PAGE gels and transferred to polyvinylidene difluoride membranes (Millipore, Bedford, Mass.), and blocked with 1% BSA in TBS-Tween 20 (0.05%, v/v) for 1 h at room temperature. The membrane was incubated with primary antibody overnight at 4° C. Antibodies for c-Myc and GAPDH were obtained from Cell Signaling Technology (Beverly, Mass.), and TXNIP, SHP-1, and SIRT1 were obtained from Abcam (Cambridge, Mass.). After washing, the membrane was incubated with the appropriate horseradish peroxidase-conjugated secondary antibody (1:3000; Eptmomics) for 1 h. Blots were visualized by ECL-associated fluorography (Millipore). Relative band intensity was quantified using the ImageJ software to determine c-myc, TXNIP, SHP-1, and SIRT1 levels.

Huh7-luc xenograft = Huh7-luc xenograft tumor growth in nude mice; type: in vivo; details: 15 mg/kg each agent, IP, 5 days-on and 2 days-off for 42 days
Description: (§6) FIG. 1. MEAN inhibits Huh7-luc xenograft tumor growth more potently than sorefenib in nude mice. Ten days after inoculation of 10^7 tumor cells subcutaneously, mice were treated with MEAN (15 mg/kg), sorafenib (15 mg/kg), or MEAN and sorafenib in combination at 15 mg/kg each, or vehicle through IP at a schedule of 5 days-on and 2 days-off for 42 days. The tumor growths were measured by whole mount imaging of luciferin florescence (representative images) (A) photon counts biweekly (B) and photon count at end of the experiment, day 42th (C), by volume (D), and by tumor weight at the experimental end point (E). Statistical analyses using t test are shown in (C and E), where *=p<0.5 and **=p<0.01. Where there is not black bar indicates p>0.5 (n=5).
as §3, with “test. […]” for “test.”

c-myc [3] = assay: Western blot of treated xenograft tumor tissue, c-myc; type: in vivo, mice; details: Huh7 and HepG2 tumors, end of 42 day treatment
Description: as §4, §5
To evaluate whether the gene expression changes in response to MEAN is cell type specific, another HCC cell line, Huh7 was also examined for the corresponding gene expression changes upon the treatment by MEAN. […]

HCC = details: cited from earlier work
HepG2-luc xenograft = HepG2-luc xenograft tumor growth in nude mice; type: in vivo; details: 15 mg/kg each agent, IP, 5 days-on and 2 days-off for 42 days
Description: as §6, with “FIG. 2.” for “FIG. 1.”, “inhibits HepG2-luc” for “inhibits Huh7-luc”
as §3, with “test. […]” for “test.”

[4] = Serum ALT and AST measurement in treated mice; type: in vivo; details: 42nd day of treatment, 15 mg/kg each agent, vs vehicle
Description: Blood samples were collected from each mouse at the end of the 42th day. Serum alanine aminotransferase aspartate (ALT) and aspartate aminotransferase (AST) were measured with an automated biochemical analyzer (DRI-CHEM 4000ie, FUJIFILM).
To determine whether the combinational treatment by MEAN and sorefenib could increase toxicity compared to those caused by monotherapy, the toxicity induced by the treatment with either agent alone and in combination was evaluated in treated animals. Toxicity was assessed by periodic body weight, mice behavior (grooming), eating, stool consistency, and serum liver enzymes levels (alanine aminotransferase, ALT, and aspartate aminotransferase, AST) at the experimental end points. […] This increase is reversible within 2 weeks of the treatment withdrawal (FIG. 3C).

SIRT1 [5] = assay: Western blot of treated xenograft tumor tissue, SIRT1; type: in vivo, mice; details: Huh7 and HepG2 tumors, end of 42 day treatment
Description: as §4, §5

SHP-1 [6] = assay: Western blot of treated xenograft tumor tissue, SHP-1; type: in vivo, mice; details: Huh7 and HepG2 tumors, end of 42 day treatment
Description: as §4, §5

KB/VCR = assay: Growth inhibition IC50 in multidrug-resistant vs parental cells (resistance factor), KB/VCR; type: cell-based; details: ratio of IC50 in KB/VCR to sensitive parental cells
Description: as §1, §2

SIRT1 [7] = assay: Western blot of treated HCC cells in culture, SIRT1; type: cell-based, human; details: HepG2 and Huh7 cells
Description: as §5

c-myc [8] = assay: Western blot of treated HCC cells in culture, c-myc; type: cell-based, human; details: HepG2 and Huh7 cells; less than 10 uM (FIG. 5B and D)
Description: as §5

HepG2 cells = assay: Cell cycle profiling by Dapi staining and flow cytometry; type: cell-based, human; details: 5 uM for 24 hours
Description: After treatment, cells were washed with PBS two times and centrifugation then, re-suspended in PBS (Ca and Mg free). 3.0m1 ice cold 95% ethanol was added to the cell pellet in a dropwise manner while vortexing and then was incubated for 30 minutes. The volume was brought up to 15 mL with PBS and the cells was pelleted and washed one time with PBS via centrifugation. Cells were resuspended in 1 ml of 10 ug/ml Dapi in PBS with 0.1% TritonX-100 to a concentration of 1×10^6cells/ml and incubated for 30 minutes on ice. The samples were then analyzed through flowcytometery and the DNA contents of the cellular population were sorted and evaluated.
Additional evidence supporting the differences between MEAN and AMN came from their differential impact on cell cycle.

SHP-1 [9] = assay: Western blot of treated HCC cells in culture, SHP-1; type: cell-based, human; details: HepG2 and Huh7 cells in culture
Description: as §5

c-myc [10] = assay: RNA array analysis of treated HepG2 cells; type: cell-based, human; details: 20 μM for 6 hours, vs DMSO
Description: RNA expression analysis was performed by GeneChip® PrimeView™ Human Gene Expression Array. Initially, genes were identified as being differentially expressed on the basis of a statistical significance (P <0.05) and 1.5-fold change (up or down) in expression levels in each comparison.
The choice of the treatment dose was based on the PK analyses (supplemental material) that the serum concentration of MEAN is around 20 uM approximately 6 hours after injection. Furthermore a relatively short duration of treatment was designed to catch the more primary cellular responses at the early stage of the treatment. GeneChip® PrimeView™ Human Gene Expression Array was used in triplicates to quantify RNA extracted from treated HepG2 cells.

TXNIP [11] = assay: Expression in treated HCC cells in culture, TXNIP; type: cell-based, human; details: treated cells in vitro
Description: as §5

COc1cccc2c1C(=O)c1c(O)c3c(c(O)c1C2=O)C[C@@](O)(C(=O)CO)C[C@@H]3O[C@H]1C[C@H](N)[C@H](O)[C@H](C)O1 [doxorubicin, reference compound]
resistance factor (RF) (MCF-7/ADR): 54.0 | resistance factor (RF) (K562/ADR): 74.1

CNC(=O)c1cc(Oc2ccc(NC(=O)Nc3ccc(Cl)c(C(F)(F)F)c3)cc2)ccn1 [sorafenib, reference compound]
body weight change [1]: did not significantly alter body weight | TXNIP protein level in tumors (TXNIP [2]): does not significantly change | tumor growth compared with vehicle (luciferase emission, tumor volume, tumor weight) (Huh7-luc xenograft): significant tumor growth retardation | c-myc protein level in tumors (c-myc [3]): does not significantly change | median overall survival (HCC; Asian study): 6.5 months | median overall survival (HCC; SHARP study): 10.7 months | tumor growth compared with vehicle (luciferase emission, tumor volume, tumor weight) (HepG2-luc xenograft): significant tumor growth retardation | serum liver enzymes (ALT and AST) at experimental end point [4]: more significantly increased | SIRT1 protein level in tumors (SIRT1 [5]): does not significantly change | SHP-1 protein level in tumors (SHP-1 [6]): does not significantly change

CC[C@]1(O)C[C@H]2CN(CCc3c([nH]c4ccccc34)[C@@](C(=O)OC)(c3cc4c(cc3OC)N(C=O)[C@H]3[C@@](O)(C(=O)OC)[C@H](OC(C)=O)[C@]5(CC)C=CCN6CC[C@]43[C@@H]65)C2)C1 [vincristine, reference compound]
resistance factor (RF) (KB/VCR): 51.2

Amonafide [AMN, reference compound]
SIRT1 protein level (SIRT1 [7]): not significantly changed | c-myc (myc) protein level (c-myc [8]): does not significantly reduces | cell cycle profile (DNA content) (HepG2 cells): G2 accumulation with diminishing Gl | SHP-1 protein level (SHP-1 [9]): does not significantly impact | c-myc RNA expression level (c-myc [10]): significantly reduce | TXNIP expression (TXNIP [11]): significantly increase
